We go through five compounds from patent US5977133A, “Pyridone antibiotic with improved safety profile” (priority 1998, dated 1999).

One series concerns E. faecalis (VanS). The series can be described thus: In vitro MIC, agar dilution. The class given is cell-based. The conditions noted are these: Enterococcus faecalis; for MIC: read-out: MIC Range; for MIC50: read-out: MIC50. On the technique in general: In agar dilution, organisms are placed on agar that contains the substance at set levels.
A further series relates to Enterococcus spp. (VanR). Description: In vitro MIC, agar dilution. It is filed as cell-based. The conditions noted are these: for MIC50: read-out: MIC50; for MIC: read-out: MIC Range.
In another series the test system is C. perfringens. Description: microbe, parasite or virus in culture. It is filed as cell-based. Particulars: Clostridium perfringens; for MIC: read-out: MIC Range.
Another series has as its system streptococci. Description: In vitro MIC, agar dilution (summary in text). The class given is cell-based.
The next series has as its system enterococci. The series can be described thus: In vitro MIC, agar dilution (summary in text). It is filed as cell-based.
Series [1] deals with Streptococcus pneumoniae 6303. Description: In vivo efficacy, mouse infection (ED50). Particulars: for ED50: Streptococcus pneumoniae, 6303, in Mus musculus, 168 h.
The next series has as its system bacteria. The series can be described thus: In vitro antibacterial activity (overall statement). It is filed as cell-based. Particulars: overall statement.
The subject of series [2] is ciprofloxacin resistant staphylococcal strains. The series can be described thus: In vitro MIC, agar dilution (summary in text). The class given is cell-based. Particulars: read-out: MIC90.
Series [3] has as its system staphylococcus aureus NTCC 10649. Description: In vivo efficacy, mouse infection (ED50). Particulars: for ED50: Staphylococcus aureus, NTCC10649, in Mus musculus, 168 h.
The next series relates to anaerobes. It is filed as cell-based, B. fragilis, C. difficile, C. perfringens. Particulars: words.
In another series the test system is enterobacteriaceae. The series can be described thus: microbe, parasite or virus in culture. The class given is cell-based.
Another series in a line: in vivo. Particulars: mouse, ip.
The subject of the next series is staphylococci. The series can be described thus: In vitro MIC, agar dilution (summary in text). It is filed as cell-based.
In another series the test system is Escherichia coli JUHL. The series can be described thus: In vivo efficacy, mouse infection (ED50). Particulars: for ED50: Escherichia coli, in Mus musculus, 168 h.
In series [4] the test system is gram positive and gram negative infections. Description: In vivo efficacy in mice (overall statement). On the set-up: species or system female CF-1 outbred mice. The conditions noted are these: for in vivo efficacy in words: gram positive and gram negative infections.
The mark [5] stands for this setting: E. faecalis (VanS), 17 isolates.
Where [6] appears, read: Enterococcus spp. (VanR), 21 isolates.
Where [7] appears, read: Enterococcus spp. (VanR), 21 isolates, read-out: MIC90.

≈ marks a conversion by molar mass, not a printed value. Entries after “also recorded” stand apart in the source; their conditions may differ. Structures can show the parent of a compound that is named as a salt. Where two headings read alike, the source gives them in different places.

Consider `NC1CCN(c2c(F)cc3c(=O)c(C(=O)O)cn(C4CC4)c3c2Cl)C1` (centres unmarked) [Clinafloxacin, clinafloxacin], for which the MIC90 against E. faecalis (VanS) was determined as 0.25 µg/mL (≈ 0.683 µM); in the series on Enterococcus spp. (VanR) (setting [7]), 2 µg/mL (≈ 5.47 µM); in the series on C. perfringens (C. perfringens, 13 isolates), 0.12 µg/mL (≈ 0.328 µM). Also, the MIC was 0.12 to 0.25 µg/mL (≈ 0.328 to 0.683 µM) with E. faecalis (VanS), 0.12 to 8 µg/mL (≈ 0.328 to 21.9 µM) in the series on Enterococcus spp. (VanR) (setting [6]) and 0.06 to 0.12 µg/mL (≈ 0.164 to 0.328 µM) with C. perfringens. For the same compound, the MIC50 in the series with E. faecalis (VanS) (setting [5]) was determined as 0.25 µg/mL (≈ 0.683 µM); in the series with Enterococcus spp. (VanR) (setting [6]), 1 µg/mL (≈ 2.73 µM); against C. perfringens it was 0.12 µg/mL (≈ 0.328 µM).

What is called ED50 is the dose at which the effect has come halfway, by size or by number of responders. As usually defined, the LD50 is the dose at which mortality reaches 50%. Lower therefore signals a more toxic substance. Regarding `CN[C@@H]1CN(c2c(F)cn3c(=O)c(C(=O)O)cc(C4CC4)c3c2C)CC12CC2` [Example 1, 1-cyclopropyl-8-(7(S)-N-methylamino-5-azaspiro[2.4]heptyl)-7-fluoro-9-methyl-4-oxo-4H-guinolizine-3-carboxylic acid hydrochloride], the MIC90 with streptococci was 0.06 µg/mL; against enterococci it was 0.25 to 1 µg/mL; against E. faecalis (VanS), 0.25 µg/mL; in the series with Enterococcus spp. (VanR) (setting [7]), 1 µg/mL; in [2], 0.5 µg/mL; against enterobacteriaceae, 0.015 to 0.25 µg/mL. Also, the MIC90 against staphylococci worked out at 0.03 µg/mL; against C. perfringens, 0.12 µg/mL; against C. perfringens (C. perfringens, 13 isolates), 0.25 µg/mL. The “in vitro activity relative to reference drugs” value with streptococci (words) was “superior to ciprofloxacin, sparfloxacin, and trovafloxacin”; in the series on enterococci (words) it was “superior to ciprofloxacin, sparfloxacin, and trovafloxacin”; with anaerobes, “significantly more active than ciprofloxacin, trovafloxacin, and sparfloxacin”; in the series with enterobacteriaceae, “equivalent to ciprofloxacin and superior to trovafloxacin and sparfloxacin”; with staphylococci (words) it was “superior to ciprofloxacin, sparfloxacin, and trovafloxacin”. The MIC with E. faecalis (VanS) is 0.12 to 0.25 µg/mL; with Enterococcus spp. (VanR) (setting [6]), 0.06 to 4 µg/mL; in the series with C. perfringens, 0.12 to 0.25 µg/mL. Moreover, the MIC50 is 0.12 µg/mL in the series on E. faecalis (VanS) (setting [5]), 0.5 µg/mL in the series with Enterococcus spp. (VanR) (setting [6]) and 0.12 µg/mL in the series on C. perfringens. Moreover, the “efficacy relative to ciprofloxacin” value was “superior to ciprofloxacin” in series [1] (S. pneumoniae, words); “superior to ciprofloxacin” in series [3] (S. aureus, words); “comparable” in the series with Escherichia coli JUHL (E. coli, words). Moreover, the 50% effective dose (ED50) in [1] (po) was 20 mg/kg; in [1] (sc), 12.5 mg/kg; in [3] (po), 5 mg/kg; in series [3] (sc) it was 1.5 mg/kg; in the series with Escherichia coli JUHL (po), 6.8 mg/kg; with Escherichia coli JUHL (sc) it was 1.4 mg/kg. For the same compound, the “antibacterial activity in words” value with bacteria was “excellent, broad-spectrum antibacterial activity”. Besides, the “weight loss in words” value (mouse, in vivo) is reported as “no weight loss was observed”. In addition, for the setting “single intraperitoneal injection to mice, hydrochloride”, the “relative toxicity / safety in words” value is “significantly less toxic than Example 2 or Example 5; also recorded: less morbidity and mortality than equivalent doses of Example 2 and Example 5”. In the series “in vivo”, this compound had an LD50 at 504 h of 232 mg/kg. The “in vivo efficacy in words” value in [4] (hydrochloride) was “maintaining efficacy versus S. aureus. S. pneumoniae and E. coli”; in series [4] (listed as example 1, hydrochloride), “broad spectrum efficacy against both gram positive and gram negative infections”. Besides, in series [4] (oral, all infections), the “oral efficacy in words” value is “Oral efficacy was also demonstrated against all infections”.

Take `Cc1c(N2C[C@@H](N)C3(CC3)C2)c(F)cn2c(=O)c(C(=O)O)cc(C3CC3)c12` [Example 5, 1-cyclopropyl-8-(7(S)-amino-5-azaspiror2.41heptvl)-7-fluoro-9-methyl4-oxo-4H-quinolizine-3-carboxylic acid hydrochloride]: the MIC90 in the series on E. faecalis (VanS) turned out to be 0.25 µg/mL; against Enterococcus spp. (VanR) (Enterococcus) it was 0.5 µg/mL; against C. perfringens (C. perfringens, 13 isolates), 0.12 µg/mL. The MIC is 0.06 to 0.25 µg/mL in the series on E. faecalis (VanS), 0.25 to 4 µg/mL in the series on Enterococcus spp. (VanR) (Enterococcus) and 0.06 to 0.12 µg/mL in the series on C. perfringens. Moreover, the MIC50 with E. faecalis (VanS) (setting [5]) came out at 0.12 µg/mL; with Enterococcus spp. (VanR) (setting [6]), 0.5 µg/mL; against C. perfringens, 0.06 µg/mL. The ED50 in series [1] (po) was 4.2 mg/kg; in series [1] (sc), 0.9 mg/kg; in [3] (po), 2.3 mg/kg; in series [3] (sc), 0.9 mg/kg; with Escherichia coli JUHL (po), 5 mg/kg; in the series on Escherichia coli JUHL (sc), 0.6 mg/kg. The body weight loss (mouse, in vivo, ip, 100 mg/kg) came to 18%. This compound had an LD50 at 504 h in “in vivo” of 105 mg/kg.

For the compound `C[C@@H]1CN(c2c(F)c(N)c3c(=O)c(C(=O)O)cn(C4CC4)c3c2F)C[C@H](C)N1` [Sparfloxacin, sparfloxacin], the MIC90 against E. faecalis (VanS) was 0.5 µg/mL (≈ 1.27 µM); in the series with Enterococcus spp. (VanR) (setting [7]), 8 µg/mL (≈ 20.4 µM); with C. perfringens (C. perfringens, 13 isolates), 0.5 µg/mL (≈ 1.27 µM). In addition, the MIC in the series on E. faecalis (VanS) was in the range of 0.25 to 1 µg/mL (≈ 0.637 to 2.55 µM); in the series with Enterococcus spp. (VanR) (setting [6]) it was 0.25 to 32 µg/mL (≈ 0.637 to 81.5 µM); in the series with C. perfringens, 0.06 to 0.5 µg/mL (≈ 0.153 to 1.27 µM). The MIC50 with E. faecalis (VanS) (setting [5]) was 0.5 µg/mL (≈ 1.27 µM); in the series on Enterococcus spp. (VanR) (setting [6]), 0.5 µg/mL (≈ 1.27 µM); with C. perfringens it was 0.25 µg/mL (≈ 0.637 µM).

Consider `N[C@@H]1[C@H]2CN(c3nc4c(cc3F)c(=O)c(C(=O)O)cn4-c3ccc(F)cc3F)C[C@@H]12` [Trovafloxacin, trovafloxacin], for which the MIC in the series with E. faecalis (VanS) lay in the range of 0.25 to 1 µg/mL (≈ 0.6 to 2.4 µM); in the series with Enterococcus spp. (VanR) (setting [6]) it was 0.06 to 32 µg/mL (≈ 0.144 to 76.9 µM). For the same compound, the MIC50 was determined as 0.5 µg/mL (≈ 1.2 µM) in the series with E. faecalis (VanS) (setting [5]) and 1 µg/mL (≈ 2.4 µM) in the series with Enterococcus spp. (VanR) (setting [6]). The MIC90 in the series with E. faecalis (VanS) (E. faecalis (VanS), 17 isolates, read-out: MIC90) is 1 µg/mL (≈ 2.4 µM); in the series on Enterococcus spp. (VanR) (setting [7]) it was 1 µg/mL (≈ 2.4 µM).
